Columns and labels:
[1] = biological target: T1, WRN [UniPro: Q14191 (WRN_HUMAN), N500-C946] (Homo sapiens (Human), UniProt Q14191); assay: WRN ATPase assay (ADP-Glo); assay type: biochemical; conditions: WRN enzymatic activity assay
[2] = biological target: T1, WRN [UniPro: Q14191 (WRN_HUMAN), N500-C946]; assay: WRN unwinding assay (FORKF DNA, fluorescence); assay type: biochemical; conditions: Table 14

T1 sequence (Q14191 500-946): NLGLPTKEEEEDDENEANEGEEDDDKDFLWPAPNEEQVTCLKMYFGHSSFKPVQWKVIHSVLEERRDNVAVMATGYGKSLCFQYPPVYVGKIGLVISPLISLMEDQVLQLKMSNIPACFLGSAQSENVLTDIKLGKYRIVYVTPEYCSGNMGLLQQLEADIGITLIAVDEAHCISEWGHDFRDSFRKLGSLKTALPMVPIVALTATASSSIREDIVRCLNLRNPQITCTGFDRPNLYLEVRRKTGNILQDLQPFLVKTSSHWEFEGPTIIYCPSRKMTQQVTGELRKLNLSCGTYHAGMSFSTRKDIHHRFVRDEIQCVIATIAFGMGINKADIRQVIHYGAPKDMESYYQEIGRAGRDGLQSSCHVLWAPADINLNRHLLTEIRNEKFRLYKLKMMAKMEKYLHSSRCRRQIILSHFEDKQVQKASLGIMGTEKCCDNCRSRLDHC

SMILES: CCc1c(N2CCN(C(=O)CNC(=O)c3ccns3)CC2)c(=O)n2nc(C3=CCOCC3)nc2n1CC(=O)Nc1ccc(C(F)(F)F)cc1F [Example 219, N-(2-(4-(2-(3,6-Dihydro-2H-pyran-4-yl)-5-ethyl-4-(2-((2-fluoro-4-(trifluoromethyl)phenyl)amino)-2-oxoethyl)-7-oxo-4,7-dihydro-[1,2,4]triazolo[1,5-a]pyrimidin-6-yl)piperazin-1-yl)-2-oxoethyl)isothiazole-5-carboxamide]
- IC50 [1]: < 100 nM
- IC50 [2]: < 100 nM

SMILES: CCc1c(N2CCN(C(=O)CNC(=O)c3ccno3)CC2)c(=O)n2nc(C3=CCOCC3)nc2n1CC(=O)Nc1ccc(C(F)(F)F)cc1F [Example 220, N-(2-(4-(2-(3,6-Dihydro-2H-pyran-4-yl)-5-ethyl-4-(2-((2-fluoro-4-(trifluoromethyl)phenyl)amino)-2-oxoethyl)-7-oxo-4,7-dihydro-[1,2,4]triazolo[1,5-a]pyrimidin-6-yl)piperazin-1-yl)-2-oxoethyl)isoxazole-5-carboxamide]
- IC50 [1]: < 100 nM
- IC50 [2]: < 100 nM

SMILES: CCc1c(N2CCN(C(=O)CNC(=O)c3ccon3)CC2)c(=O)n2nc(C3=CCOCC3)nc2n1CC(=O)Nc1ccc(C(F)(F)F)cc1F [Example 221, N-(2-(4-(2-(3,6-Dihydro-2H-pyran-4-yl)-5-ethyl-4-(2-((2-fluoro-4-(trifluoromethyl)phenyl)amino)-2-oxoethyl)-7-oxo-4,7-dihydro-[1,2,4]triazolo[1,5-a]pyrimidin-6-yl)piperazin-1-yl)-2-oxoethyl)isoxazole-3-carboxamide]
- IC50 [1]: < 100 nM
- IC50 [2]: < 100 nM

SMILES: CCc1c(N2CCN(C(=O)CNC(=O)c3ncnc(C)c3O)CC2)c(=O)n2nc(C3=CCOCC3)nc2n1CC(=O)Nc1ccc(C(F)(F)F)cc1F [Example 222, N-(2-(4-(2-(3,6-Dihydro-2H-pyran-4-yl)-5-ethyl-4-(2-((2-fluoro-4-(trifluoromethyl)phenyl)amino)-2-oxoethyl)-7-oxo-4,7-dihydro-[1,2,4]triazolo[1,5-a]pyrimidin-6-yl)piperazin-1-yl)-2-oxoethyl)-5-hydroxy-6-methylpyrimidine-4-carboxamide]
- IC50 [1]: < 100 nM
- IC50 [2]: < 100 nM

SMILES: CCc1c(N2CCN(C(=O)CNC(=O)c3cc(N(C)C)ccc3F)CC2)c(=O)n2nc(C3=CCOCC3)nc2n1CC(=O)Nc1ccc(C(F)(F)F)cc1F [Example 224, N-(2-(4-(2-(3,6-Dihydro-2H-pyran-4-yl)-5-ethyl-4-(2-((2-fluoro-4-(trifluoromethyl)phenyl)amino)-2-oxoethyl)-7-oxo-4,7-dihydro-[1,2,4]triazolo[1,5-a]pyrimidin-6-yl)piperazin-1-yl)-2-oxoethyl)-5-(dimethylamino)-2-fluorobenzamide]
- IC50 [1]: < 100 nM
- IC50 [2]: 100 to 1000 nM

SMILES: [2H]C([2H])(NC(=O)c1ccccc1F)C(=O)N1CCN(c2c(CC)n(C([2H])([2H])C(=O)Nc3ccc(C(F)(F)F)cc3F)c3nc(C4=CCOCC4)nn3c2=O)CC1 [Example 225, N-(2-(4-(2-(3,6-Dihydro-2H-pyran-4-yl)-5-ethyl-4-(2-((2-fluoro-4-(trifluoromethyl)phenyl)amino)-2-oxoethyl-1,1-d2)-7-oxo-4,7-dihydro-[1,2,4]triazolo[1,5-a]pyrimidin-6-yl)piperazin-1-yl)-2-oxoethyl-1,1-d2)-2-fluorobenzamide]
- IC50 [1]: < 100 nM
- IC50 [2]: < 100 nM

SMILES: CCc1c(N2CCN(C(=O)C(=O)Nc3ncco3)CC2)c(=O)n2nc(C3=CCOCC3)nc2n1CC(=O)Nc1ccc(C(F)(F)F)cc1Cl [Example 226, 2-(4-(4-(2-((2-Chloro-4-(trifluoromethyl)phenyl)amino)-2-oxoethyl)-2-(3,6-dihydro-2H-pyran-4-yl)-5-ethyl-7-oxo-4,7-dihydro-[1,2,4]triazolo[1,5-a]pyrimidin-6-yl)piperazin-1-yl)-N-(oxazol-2-yl)-2-oxoacetamide]
- IC50 [1]: < 100 nM
- IC50 [2]: < 100 nM

SMILES: CCc1c(N2CCN(C(=O)C(=O)Nc3nccs3)CC2)c(=O)n2nc(C3=CCOCC3)nc2n1CC(=O)Nc1ccc(C(F)(F)F)cc1F [Example 227, 2-(4-(2-(3,6-Dihydro-2H-pyran-4-yl)-5-ethyl-4-(2-((2-fluoro-4-(trifluoromethyl)phenyl)amino)-2-oxoethyl)-7-oxo-4,7-dihydro-[1,2,4]triazolo[1,5-a]pyrimidin-6-yl)piperazin-1-yl)-2-oxo-N-(thiazol-2-yl)acetamide]
- IC50 [1]: < 100 nM
- IC50 [2]: < 100 nM

SMILES: CCc1c(N2CCN(C(=O)C(=O)Nc3ncco3)CC2)c(=O)n2nc(C3=CCOCC3)nc2n1CC(=O)Nc1ccc(C(F)(F)F)cc1F [Example 228, 2-(4-(2-(3,6-Dihydro-2H-pyran-4-yl)-5-ethyl-4-(2-((2-fluoro-4-(trifluoromethyl)phenyl)amino)-2-oxoethyl)-7-oxo-4,7-dihydro-[1,2,4]triazolo[1,5-a]pyrimidin-6-yl)piperazin-1-yl)-N-(oxazol-2-yl)-2-oxoacetamide]
- IC50 [1]: < 100 nM
- IC50 [2]: < 100 nM

SMILES: CCc1c(N2CCN(C(=O)C(=O)Nc3ccccn3)CC2)c(=O)n2nc(C3=CCOCC3)nc2n1CC(=O)Nc1ccc(C(F)(F)F)cc1F [Example 229, 2-(4-(2-(3,6-Dihydro-2H-pyran-4-yl)-5-ethyl-4-(2-((2-fluoro-4-(trifluoromethyl)phenyl)amino)-2-oxoethyl)-7-oxo-4,7-dihydro-[1,2,4]triazolo[1,5-a]pyrimidin-6-yl)piperazin-1-yl)-2-oxo-N-(pyridin-2-yl)acetamide]
- IC50 [1]: 100 to 1000 nM
- IC50 [2]: < 100 nM

SMILES: CCc1c(N2CCN(C(=O)CNC(=O)c3ccccc3)CC2)c(=O)n2nc(N3CCOCC3)nc2n1CC(=O)Nc1ccc(C(F)(F)F)cc1Cl [Example 231, N-(2-(4-(4-(2-((2-Chloro-4-(trifluoromethyl)phenyl)amino)-2-oxoethyl)-5-ethyl-2-morpholino-7-oxo-4,7-dihydro-[1,2,4]triazolo[1,5-a]pyrimidin-6-yl)piperazin-1-yl)-2-oxoethyl)benzamide]
- IC50 [1]: < 100 nM
- IC50 [2]: < 100 nM

SMILES: CCc1c(N2CCN(C(=O)CNC(=O)c3ccccc3)CC2)c(=O)n2nc(N3Cc4ccncc4C3)nc2n1CC(=O)Nc1ccc(C(F)(F)F)cc1Cl [Example 232, N-(2-(4-(4-(2-((2-Chloro-4-(trifluoromethyl)phenyl)amino)-2-oxoethyl)-2-(1,3-dihydro-2H-pyrrolo[3,4-c]pyridin-2-yl)-5-ethyl-7-oxo-4,7-dihydro-[1,2,4]triazolo[1,5-a]pyrimidin-6-yl)piperazin-1-yl)-2-oxoethyl)benzamide]
- IC50 [1]: < 100 nM
- IC50 [2]: < 100 nM

SMILES: CCc1c(N2CCN(C(=O)CNC(=O)c3ccccc3)CC2)c(=O)n2nc(N3CC4COCC4C3)nc2n1CC(=O)Nc1ccc(C(F)(F)F)cc1Cl (stereo not shown) [Example 233, N-(2-(4-(4-(2-((2-Chloro-4-(trifluoromethyl)phenyl)amino)-2-oxoethyl)-5-ethyl-7-oxo-2-(tetrahydro-1H-furo[3,4-c]pyrrol-5 (3H)-yl)-4,7-dihydro-[1,2,4]triazolo[1,5-a]pyrimidin-6-yl)piperazin-1-yl)-2-oxoethyl)benzamide]
- IC50 [1]: < 100 nM
- IC50 [2]: < 100 nM

SMILES: CCc1c(N2CCN(C(=O)CNC(=O)c3ccccc3)CC2)c(=O)n2nc(N3CCc4ncccc43)nc2n1CC(=O)Nc1ccc(C(F)(F)F)cc1Cl [Example 234, N-(2-(4-(4-(2-((2-Chloro-4-(trifluoromethyl)phenyl)amino)-2-oxoethyl)-2-(2,3-dihydro-1H-pyrrolo[3,2-b]pyridin-1-yl)-5-ethyl-7-oxo-4,7-dihydro-[1,2,4]triazolo[1,5-a]pyrimidin-6-yl)piperazin-1-yl)-2-oxoethyl)benzamide]
- IC50 [1]: 100 to 1000 nM
- IC50 [2]: < 100 nM

— patent publication US20260015358A1, “BICYCLIC DERIVATIVES, COMPOSITIONS AND USES THEREOF” (Danatlas Pharmaceuticals Co., Ltd., priority 2023, published 2026)
